Where a name gives a salt, the structure may show the parent alone. Read-outs that look alike come from different tables or passages of the source.
Key:
human μ-opiate receptor = human μ-opiate receptor (Homo sapiens, UniProt P35372); experiment: Affinity for the human μ-opiate receptor ([3H]-naloxone displacement, SPA, CHO-K1 membrane preparation); assay type: binding; settings: for inhibition at 1 µM: read-out: μ-Opioid receptor, % inhibition [1 μM]; for Ki: read-out: μ-Opioid receptor, Ki
Serotonin (5HT) reuptake = target: T1, Serotonin (5HT) reuptake (Rattus norvegicus, UniProt P31652); experiment: Serotonin (5HT) reuptake inhibition in rat brain synaptosomes (P2 fraction); assay type: biochemical; settings: for inhibition at 10 µM: read-out: Serotonin reuptake, % inhibition [10 μM]
T1 construct: synaptosomes are freshly isolated from areas of rat brain; from tissue; host or cells: rat brain synaptosomes (P2 fraction)
T1 sequence (P31652 whole entry): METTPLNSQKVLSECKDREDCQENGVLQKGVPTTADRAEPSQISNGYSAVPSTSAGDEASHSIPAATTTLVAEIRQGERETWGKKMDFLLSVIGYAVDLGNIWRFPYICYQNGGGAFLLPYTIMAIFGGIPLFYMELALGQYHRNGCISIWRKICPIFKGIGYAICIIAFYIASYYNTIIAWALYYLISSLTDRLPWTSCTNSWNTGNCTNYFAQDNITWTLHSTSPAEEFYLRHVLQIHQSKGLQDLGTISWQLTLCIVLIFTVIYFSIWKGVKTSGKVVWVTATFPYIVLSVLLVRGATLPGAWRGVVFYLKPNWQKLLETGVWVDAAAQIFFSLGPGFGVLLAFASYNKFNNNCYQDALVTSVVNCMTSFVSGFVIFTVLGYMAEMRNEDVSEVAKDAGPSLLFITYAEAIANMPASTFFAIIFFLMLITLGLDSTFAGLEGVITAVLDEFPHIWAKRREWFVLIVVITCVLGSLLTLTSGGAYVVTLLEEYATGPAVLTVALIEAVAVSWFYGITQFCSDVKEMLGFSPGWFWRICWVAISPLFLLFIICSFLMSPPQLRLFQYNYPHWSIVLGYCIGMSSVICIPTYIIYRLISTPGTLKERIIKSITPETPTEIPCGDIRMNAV
Description: (§1) Noradrenaline (NA) and Serotonin (5HT) Reuptake Inhibition
(§2) In order to be able to carry out these studies in vitro, synaptosomes are freshly isolated from areas of rat brain. A so-called “P2” fraction prepared by the method of Gray and Whittaker (E. G. Gray and V. P. Whittaker (1962) J. Anat. 76, 79-88) is used in each case. For the NA uptake, these vesicular particles are isolated from the hypothalamus of male rat brains.
(§3) A detailed description of the method will be found in the literature (M. Ch. Frink, H. H. Hennies, W. Englberger, M. Haurand and B. Wilffert (1996) Arzneim.-Forsch./Drug Res. 46 (III), 11, 1029-1036).

[1] = target: T2, Noradrenaline (NA) reuptake (Rattus norvegicus, UniProt Q63380); experiment: Noradrenaline (NA) reuptake inhibition in rat brain synaptosomes (hypothalamus, P2 fraction); assay type: biochemical
T2 construct: synaptosomes are freshly isolated from areas of rat brain; from tissue; host or cells: rat hypothalamus synaptosomes (P2 fraction)
T2 sequence (Q63380 1-617): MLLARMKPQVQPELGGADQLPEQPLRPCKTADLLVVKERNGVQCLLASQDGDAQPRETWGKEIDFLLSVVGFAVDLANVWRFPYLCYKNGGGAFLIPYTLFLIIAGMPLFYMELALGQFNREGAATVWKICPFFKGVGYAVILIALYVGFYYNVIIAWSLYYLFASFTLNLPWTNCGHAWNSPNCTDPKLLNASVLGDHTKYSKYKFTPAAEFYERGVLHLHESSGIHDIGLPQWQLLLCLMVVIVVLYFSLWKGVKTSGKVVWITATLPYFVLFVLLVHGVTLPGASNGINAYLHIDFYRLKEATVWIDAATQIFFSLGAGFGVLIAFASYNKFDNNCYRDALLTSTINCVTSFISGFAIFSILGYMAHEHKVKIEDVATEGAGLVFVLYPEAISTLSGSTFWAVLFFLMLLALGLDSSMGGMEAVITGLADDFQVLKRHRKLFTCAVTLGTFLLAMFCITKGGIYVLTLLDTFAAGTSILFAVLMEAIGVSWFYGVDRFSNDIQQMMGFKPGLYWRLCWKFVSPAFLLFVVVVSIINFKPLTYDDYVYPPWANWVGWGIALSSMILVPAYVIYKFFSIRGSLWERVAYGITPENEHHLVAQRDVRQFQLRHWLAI
Description: as §1, §2, §3

[2] = read-out: Na reuptake, % inhibition [10 μM]
[3] = 1 μM test substance, inhibition of specific [3H]-naloxone binding
[4] = read-out: NA reuptake, % inhibition [10 μM]
[5] = [3H]-naloxone, human μ-opiate receptor membranes

Sequence of human μ-opiate receptor (P35372 whole entry): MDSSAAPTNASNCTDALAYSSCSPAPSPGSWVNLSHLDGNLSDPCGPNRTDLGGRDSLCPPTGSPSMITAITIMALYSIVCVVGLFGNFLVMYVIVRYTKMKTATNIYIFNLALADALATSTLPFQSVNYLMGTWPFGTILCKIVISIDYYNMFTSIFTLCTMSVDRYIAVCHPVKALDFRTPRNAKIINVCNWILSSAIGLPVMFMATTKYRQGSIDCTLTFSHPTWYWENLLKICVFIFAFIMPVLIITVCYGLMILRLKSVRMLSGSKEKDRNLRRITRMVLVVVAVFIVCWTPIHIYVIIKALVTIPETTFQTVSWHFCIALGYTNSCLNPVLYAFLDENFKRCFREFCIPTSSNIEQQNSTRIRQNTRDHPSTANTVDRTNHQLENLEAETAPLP

Row | Structure (SMILES) | Ki (human μ-opiate receptor) | inhibition at 10 µM (Serotonin (5HT) reuptake) | inhibition at 1 µM (human μ-opiate receptor; [3]) | inhibition at 10 µM [1, 4] | other results
1 | CCC(CC)C(=O)NC1CCC(C(c2ccccc2)N(C)C)CC1 (centres unmarked) [compound 93, N-(4-((dimethylamino)(phenyl)methyl)cyclohexyl)-2-ethylbutanamide hydrochloride] | 94 nM | 75% | – | – | inhibition at 1 µM (human μ-opiate receptor): 94%; Ki (Serotonin (5HT) reuptake): 660 nM; inhibition at 10 µM [1, 2]: 48%
2 | CN(C)C(c1cccc(F)c1)C1CCC(CCO)CC1 (centres unmarked) [compound 131, 2-{4-[dimethylamino-(3-fluorophenyl)-methyl]-cyclohexyl}-ethanol] | – | 91% | 68% | 89% | –
3 | CN(C)C(c1ccccc1)C1CCC(NS(=O)(=O)c2ccc(Cl)cc2)CC1 (centres unmarked) [compound 106, 4-chloro-N-(4-((dimethylamino)(phenyl)methyl)cyclohexyl)benzene-sulfonamide hydrochloride] | – | 83% | – | 68% | inhibition at 1 µM (human μ-opiate receptor; 1 μM, sulfonamides (Table 17)): 96%; Ki (human μ-opiate receptor; sulfonamides (Table 17)): 3.7 nM
4 | CCOC(=O)C=C1CCC(C(c2cccc(F)c2)N(C)C)CC1 (centres unmarked) [compound 129, {4-[dimethylamino-(3-fluorophenyl)-methyl]-cyclohexylidene}-acetic acid ethyl ester] | 540 nM | 91% | 47% | 81% | Ki (Serotonin (5HT) reuptake): 86 nM
5 | CC(=O)N(Cc1ccccc1)C1CCC(C(c2ccccc2)N(C)C)CC1 (centres unmarked) [compound 100, N-benzyl-N-(4-((dimethylamino)(phenyl)methyl)cyclohexyl)acetamide hydrochloride] | 3.5 nM | 86% | – | – | inhibition at 1 µM (human μ-opiate receptor): 100%; Ki (Serotonin (5HT) reuptake): 520 nM; Ki [1]: 320 nM; inhibition at 10 µM [1, 2]: 91%
6 | CN(C)C(CCc1ccccc1)C1CCC(CCCO)CC1 (centres unmarked) [compound 143, 3-[4-(1-dimethylamino-3-phenyl-propyl)-cyclohexyl]-propan-1-ol] | – | 90% | 24% | 100% | –
7 | CCOC(=O)C=CC1CCC(C(c2ccc(F)cc2)N(C)C)CC1 (centres unmarked) [compound 135, 3-{4-[dimethylamino-(4-fluorophenyl)-methyl]-cyclohexyl}-acrylic acid ethyl ester] | 380 nM | 78% | 70% | 90% | Ki (Serotonin (5HT) reuptake): 220 nM; Ki [1]: 490 nM
8 | CN(C)C(c1cccs1)C1CCC(N)CC1 (centres unmarked) [compound 25, 4-(dimethylamino-thiophen-2-yl-methyl)-cyclohexylamine] | – | 71% | 74% | 84% | Ki (human μ-opiate receptor; [5]): 260 nM
9 | CN(C)C(c1ccccc1)C1CCC(NC(=O)Nc2ccccc2[N+](=O)[O-])CC1 (centres unmarked) [compound 76, 1-(4-((dimethylamino)(phenyl)methyl)cyclohexyl)-3-(2-nitrophenyl)urea hydrochloride] | – | 84% | 61% | 100% | –
10 | CN(C)C(c1ccc(Cl)cc1)C1CCC(CN)CC1 (centres unmarked) [compound 39, [(4-aminomethyl-cyclohexyl)-(4-chlorophenyl)-methyl]-dimethylamine] | – | 87% | 56% | 97% | –
11 | COc1ccc(OC)c(C2(O)CCC(C(c3ccccc3)N(C)C)CC2)c1 (centres unmarked) [compound 149, 1-(2,5-Dimethoxyphenyl)-4-((dimethylamino)(phenyl)methyl)cyclohexanol hydrochloride] | – | 85% | 82% | 75% | –
12 | CN(C)C(c1ccc(F)cc1)C1CCC(O)CC1 (centres unmarked) [compound 112, 4-[dimethylamino-(4-fluorophenyl)-methyl]-cyclohexanol] | – | 82% | 66% | 74% | –
13 | CN(C)C(c1cccc(F)c1)C1CCC(O)CC1 (centres unmarked) [compound 113, 4-[dimethylamino-(3-fluorophenyl)-methyl]-cyclohexanol] | – | 83% | 46% | 82% | –
14 | CN(C)C(c1cccs1)C1CCC(O)CC1 (centres unmarked) [compound 115, 4-(dimethylamino-thiophen-2-yl-methyl)-cyclohexanol] | – | 63% | 61% | 47% | –
15 | COc1ccc(CNC2CCC(C(c3ccccc3)N(C)C)CC2)cc1 (centres unmarked) [compound 90, 4-((dimethylamino)(phenyl)methyl)-N-(4-methoxybenzyl)cyclohexanamine dihydrochloride] | 45 nM | 87% | 94% | 98% | –
16 | CN(C)C(c1ccccc1)C1CCC(CCCO)CC1 (centres unmarked) [compound 134, 3-[4-(dimethylamino-phenyl-methyl)-cyclohexyl]-propan-1-ol] | – | 86% | 45% | 90% | –
17 | CN(C)C(c1ccccc1)C1CCC(N)CC1 (centres unmarked) [compound 17, 4-(dimethylamino-phenyl-methyl)-cyclohexylamine] | – | 86% | 83% | 92% | Ki (human μ-opiate receptor; [5]): 440 nM; Ki (Serotonin (5HT) reuptake; rat brain synaptosomes, read-out: Serotonin reuptake, Ki): 860 nM; Ki ([1]; rat brain synaptosomes (hypothalamus), read-out: NA reuptake, Ki): 870 nM
18 | CN(C)C(c1cccs1)C1CCC(CCN)CC1 (centres unmarked) [compound 69, 2-[4-(dimethylamino-thiophen-2-yl-methyl)-cyclohexyl]-ethylamine] | – | 83% | 61% | 98% | –
19 | CN(C)C(c1ccccc1)C1CCC(NC(=O)Nc2ccc(Br)cc2)CC1 (centres unmarked) [compound 81, 1-(4-bromophenyl)-3-(4-((dimethylamino)(phenyl)methyl)cyclohexyl)urea] | 33 nM | 97% | 95% | 97% | –
20 | CN(C)C(c1ccc(F)cc1)C1CCC(CO)CC1 (centres unmarked) [compound 118, {4-[dimethylamino-(4-fluorophenyl)-methyl]-cyclohexyl}-methanol] | – | 90% | 33% | 91% | –
21 | CCOC(=O)C=CC1CCC(C(c2ccccc2)N(C)C)CC1 (centres unmarked) [compound 132, 3-[4-(dimethylamino-phenyl-methyl)-cyclohexyl]-acrylic acid ethyl ester] | 120 nM | 86% | 91% | 84% | Ki (Serotonin (5HT) reuptake): 420 nM; Ki [1]: 590 nM
22 | CN(C)C(c1ccccc1)C1CCC(NC(=O)Nc2cccc(Br)c2)CC1 (centres unmarked) [compound 77, 1-(3-bromophenyl)-3-(4-((dimethylamino)(phenyl)methyl)cyclohexyl)urea hydrochloride] | 78 nM | 84% | 88% | 93% | –
23 | CN(C)C(c1ccccc1)C1CCC(NCCc2ccccc2)CC1 (centres unmarked) [compound 84, 4-((dimethylamino)(phenyl)methyl)-N-phenethylcyclohexanamine hydrochloride] | 12 nM | 76% | 95% | 93% | –
24 | CN(C)C(c1cccc(F)c1)C1CCC(CN)CC1 (centres unmarked) [compound 36, [(4-aminomethyl-cyclohexyl)-(3-fluorophenyl)-methyl]-dimethylamine] | – | 89% | 68% | 93% | Ki (Serotonin (5HT) reuptake): 96 nM; Ki [1]: 110 nM
25 | CN(C)C(c1cccs1)C1CCC(CC=O)CC1 (centres unmarked) [compound 67, {4-[Dimethylamino-thiophen-2-yl-methyl]-cyclohexyl}-acetaldehyde] | 200 nM | 95% | – | 86% | –
26 | CN(C)C(c1ccccc1)C1CCC(N(Cc2ccccc2)C(=O)c2ccc(F)cc2)CC1 (centres unmarked) [compound 103, N-benzyl-N-(4-((dimethylamino)(phenyl)methyl)cyclohexyl)-4-fluoro-benzamide hydrochloride] | 8.8 nM | 93% | – | – | inhibition at 1 µM (human μ-opiate receptor): 99%; Ki (Serotonin (5HT) reuptake): 560 nM; Ki [1]: 400 nM; inhibition at 10 µM [1, 2]: 87%
27 | CN(C)C(CCc1ccccc1)C1CCC(CCN)CC1 (centres unmarked) [compound 72, {1-[4-(2-amino-ethyl)-cyclohexyl]-3-phenyl-propyl}-dimethylamine] | – | 79% | – | 91% | –
28 | CN(C)C(c1ccc(F)cc1)C1CCC(CCN)CC1 (centres unmarked) [compound 51, 2-{4-[dimethylamino-(4-fluorophenyl)-methyl]-cyclohexyl}-ethylamine] | – | 97% | – | 98% | –
29 | CN(C)C(c1ccc(Cl)cc1)C1CCC(C=O)CC1 (centres unmarked) [compound 37, 4-[(4-Chloro-phenyl)-dimethylamino-methyl]-cyclohexane-carbaldehyde] | – | 75% | – | 97% | –
30 | O=C(C=C1CCC(C(Cc2ccccc2)N2CCCC2)CC1)NCc1ccccn1 (centres unmarked) [compound 495, 2-(4-(2-phenyl-1-(pyrrolidin-1-yl)ethyl)cyclohexylidene)-N-(pyridin-2-ylmethyl)acetamide] | – | 7% | – | 16% | –
